The subject of this data set is Panc1 tumor xenografts. The data set can be described thus: Whole-body dynamic PET pharmacokinetics. Particulars: ~250 µCi i.v., remaining constant until 90 min. In kind it is in vivo, NSG mice. On the procedure: Dynamic PET images were acquired on a Simultaneous 7T Bruker PET-MR scanner to evaluate the pharmacokinetics of [^68Ga]AJ201. Mice bearing Panc1 tumor xenografts were anesthetized under 2.5% isoflurane and a catheter was fixed in the tail vein before being secured on the PET-MR bed. An activity of ~250 µCi (9.3 MBq; 0.5 to 0.8 nmol) of [^68Ga]AJ201 was administered intravenously and whole-body PET dynamic scans were performed. Dynamic PET scans were initiated one min before radiotracer injection and acquired at varying intervals to capture early and late-phase kinetics: every 30 s from -1 to 5 min, every min from 5 to 15 min, every 3 min from 15 to 30 min, every 5 min from 30 to 60 min, and every 10 min from 60 to 90 min. The acquired PET data were reconstructed and corrected for radioactive decay and dead time using ParaVision 360 V2 by Bruker. The percentage of injected dose per cc (%ID/cc) values were obtained by drawing ROI on the tumor, muscle, heart, liver and kidney using PMOD software, and image fusion and visualization were also performed using PMOD software.

*1 amine or outer side, *2 acyl side, *3 side chain or, on linkers, in order; H or OH if unused. Where a SMILES comes first, the peptide text is derived from it. Bridges are numbered along the chain shown (N, C = ends). [ ]: non-standard residue; d: D form. The star is where a group is joined. TATA = O=C(CC[*:1])N1CN(C(=O)CC[*:2])CN(C(=O)CC[*:3])C1; NOTA = O=C(O)CN1CCN(CC(=O)O)CCN(CC(=O)*)CC1; Hyp = O=C(O)[C@@H]1C[C@@H](O)CN1; hArg = N=C(N)NCCCC[C@H](N)C(=O)O; PEG2 = NCCOCCOCCC(=O)O; Sar = CNCC(=O)O

As for `CC(C)C[C@@H]1NC(=O)[C@@H]2CSCCC(=O)N3CN(CN(C3)C(=O)CCSC[C@H](NC(=O)[C@H](CC(=O)O)NC(=O)[C@H](CCCCNC(=N)N)NC(=O)[C@H](C)NC(=O)CNC(=O)CN(C)C(=O)CN(C)C(=O)CN(C)C(=O)[C@H](CCCNC(=N)N)NC(=O)CNC(=O)CCOCCOCCNC(=O)CN3CCN(CC(=O)O)CCN(CC(=O)O)CC3)C(=O)N3C[C@H](O)C[C@H]3C(=O)N[C@@H](CC(C)C)C(=O)N[C@@H](C(C)C)C(=O)N[C@@H](CC(N)=O)C(=O)N3CCC[C@H]3C(=O)N[C@@H](CC(C)C)C(=O)N2)C(=O)CCSC[C@@H](C(N)=O)NC(=O)[C@H](CCCCNC(=N)N)NC(=O)[C@H](Cc2c[nH]c3ccccc23)NC(=O)[C@@H](CC(=O)O)NC(=O)[C@@H]2CCCN2C(=O)[C@H](Cc2c[nH]cn2)NC1=O` [[^68Ga]AJ201, metal not drawn] ({NOTA-PEG2}-GR[Sar][Sar][Sar]GA[hArg]DC[Hyp]LVNPLCLHP[dD]W[hArg]C-NH2; linker 10-17-24 via TATA), the “Time of peak tumor radioactivity (ROI analysis)” value is on record as 30 min.

Source of the values: article PMC11984392, “EphA2-targeted alpha-particle theranostics for enhancing PDAC treatment” (Theranostics, 2025).
